Activity calls are given as the source filed them.
Tests used:
[1] = NIH3T3 cell viability loss – ATP luminescence, mouse fibroblasts, counter-screen, dose response (AID 2010); type: functional, cell-based;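 further: cells exposed to compound for about 90 hours before reading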
Trypsin = Trypsin (Sus scrofa, UniProt P00761); test: trypsin protease activity blockade – biochemical, quenched peptide fluorescence, cherry-pick, selectivity assay for Rce1 protease inhibitor project, dose response (AID 488789)
CAAX prenyl protease 2 = target: T1, CAAX prenyl protease 2 (Saccharomyces cerevisiae S288c, UniProt Q03530); type: biochemical
T1 sequence (Q03530 whole entry): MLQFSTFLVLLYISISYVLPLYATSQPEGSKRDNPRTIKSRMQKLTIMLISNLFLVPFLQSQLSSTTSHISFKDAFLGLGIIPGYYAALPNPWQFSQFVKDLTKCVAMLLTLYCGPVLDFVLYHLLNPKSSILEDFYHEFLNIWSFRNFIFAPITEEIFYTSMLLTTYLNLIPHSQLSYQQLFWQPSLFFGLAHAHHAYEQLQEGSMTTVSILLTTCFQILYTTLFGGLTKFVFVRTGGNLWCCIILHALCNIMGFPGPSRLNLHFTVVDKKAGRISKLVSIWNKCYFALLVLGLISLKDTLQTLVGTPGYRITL

[2] = target: Neurotensin receptor type 1 (Homo sapiens, UniProt P30989); type: functional;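 further: Image-based confirmatory dose-response assay measuring agonist activity at NTR1; NTR1-expressing U2OS osteosarcoma cells imaged for beta-arrestin GFP spot formation; agonist potency where compounds increase beta-arrestin recruitment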
[3] = alpha-synuclein stem-loop luciferase translation blockers – H4 neuroglioma cells, luminescence, confirmation (AID 1988); type: functional, cell-based
[4] = target: Serine/threonine-protein phosphatase PP1-alpha catalytic subunit (Homo sapiens, UniProt P62136); test: inhibition of protein phosphatase 1 activity – biochemical, fluorescence, dose response (AID 2394)
[5] = target: T2, Histone-lysine N-methyltransferase NSD2 (Homo sapiens, UniProt O96028); type: biochemical
T2 sequence (O96028 whole entry): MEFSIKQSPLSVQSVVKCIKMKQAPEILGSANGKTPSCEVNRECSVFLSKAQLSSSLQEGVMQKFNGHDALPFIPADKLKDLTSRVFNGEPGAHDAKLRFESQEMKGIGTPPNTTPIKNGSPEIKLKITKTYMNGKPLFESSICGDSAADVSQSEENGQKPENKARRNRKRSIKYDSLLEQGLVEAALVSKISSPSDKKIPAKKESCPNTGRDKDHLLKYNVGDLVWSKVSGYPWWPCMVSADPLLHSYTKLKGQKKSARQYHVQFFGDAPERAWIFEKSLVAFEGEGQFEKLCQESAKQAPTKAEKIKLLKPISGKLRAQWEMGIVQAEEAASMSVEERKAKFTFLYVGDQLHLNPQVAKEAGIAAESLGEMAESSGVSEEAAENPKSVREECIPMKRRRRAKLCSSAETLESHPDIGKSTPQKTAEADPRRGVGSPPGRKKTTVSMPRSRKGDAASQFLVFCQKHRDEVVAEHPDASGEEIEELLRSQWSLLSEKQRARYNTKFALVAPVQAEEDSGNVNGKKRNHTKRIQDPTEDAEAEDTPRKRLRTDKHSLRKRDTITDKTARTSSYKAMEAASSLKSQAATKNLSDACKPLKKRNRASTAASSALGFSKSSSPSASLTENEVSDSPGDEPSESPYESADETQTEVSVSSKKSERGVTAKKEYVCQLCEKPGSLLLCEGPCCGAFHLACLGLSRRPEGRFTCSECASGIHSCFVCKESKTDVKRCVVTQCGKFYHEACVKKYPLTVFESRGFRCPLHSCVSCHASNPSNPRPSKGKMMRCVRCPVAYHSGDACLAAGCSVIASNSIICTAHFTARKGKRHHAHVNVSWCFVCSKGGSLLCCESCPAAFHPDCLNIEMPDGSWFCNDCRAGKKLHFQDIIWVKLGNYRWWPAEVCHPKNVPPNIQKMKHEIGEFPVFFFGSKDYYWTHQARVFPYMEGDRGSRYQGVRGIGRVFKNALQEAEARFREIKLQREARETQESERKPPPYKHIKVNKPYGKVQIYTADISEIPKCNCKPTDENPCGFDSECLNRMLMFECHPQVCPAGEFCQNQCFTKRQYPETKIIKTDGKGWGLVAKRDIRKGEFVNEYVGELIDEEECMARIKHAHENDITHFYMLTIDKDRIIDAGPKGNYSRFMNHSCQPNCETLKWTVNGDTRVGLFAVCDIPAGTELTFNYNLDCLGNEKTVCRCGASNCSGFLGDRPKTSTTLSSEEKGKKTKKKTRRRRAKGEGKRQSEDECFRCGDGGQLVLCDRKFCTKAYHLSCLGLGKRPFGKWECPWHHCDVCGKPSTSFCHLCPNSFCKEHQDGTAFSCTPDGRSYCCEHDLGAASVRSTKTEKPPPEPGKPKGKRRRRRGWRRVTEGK

Hexokinase HKDC1 = target: T3, Hexokinase HKDC1 (Homo sapiens, UniProt Q2TB90); test: inhibition of HKDC1 glucose phosphorylation – biochemical, W721R variant, dose response (AID 504729); type: functional
T3 sequence (Q2TB90 whole entry): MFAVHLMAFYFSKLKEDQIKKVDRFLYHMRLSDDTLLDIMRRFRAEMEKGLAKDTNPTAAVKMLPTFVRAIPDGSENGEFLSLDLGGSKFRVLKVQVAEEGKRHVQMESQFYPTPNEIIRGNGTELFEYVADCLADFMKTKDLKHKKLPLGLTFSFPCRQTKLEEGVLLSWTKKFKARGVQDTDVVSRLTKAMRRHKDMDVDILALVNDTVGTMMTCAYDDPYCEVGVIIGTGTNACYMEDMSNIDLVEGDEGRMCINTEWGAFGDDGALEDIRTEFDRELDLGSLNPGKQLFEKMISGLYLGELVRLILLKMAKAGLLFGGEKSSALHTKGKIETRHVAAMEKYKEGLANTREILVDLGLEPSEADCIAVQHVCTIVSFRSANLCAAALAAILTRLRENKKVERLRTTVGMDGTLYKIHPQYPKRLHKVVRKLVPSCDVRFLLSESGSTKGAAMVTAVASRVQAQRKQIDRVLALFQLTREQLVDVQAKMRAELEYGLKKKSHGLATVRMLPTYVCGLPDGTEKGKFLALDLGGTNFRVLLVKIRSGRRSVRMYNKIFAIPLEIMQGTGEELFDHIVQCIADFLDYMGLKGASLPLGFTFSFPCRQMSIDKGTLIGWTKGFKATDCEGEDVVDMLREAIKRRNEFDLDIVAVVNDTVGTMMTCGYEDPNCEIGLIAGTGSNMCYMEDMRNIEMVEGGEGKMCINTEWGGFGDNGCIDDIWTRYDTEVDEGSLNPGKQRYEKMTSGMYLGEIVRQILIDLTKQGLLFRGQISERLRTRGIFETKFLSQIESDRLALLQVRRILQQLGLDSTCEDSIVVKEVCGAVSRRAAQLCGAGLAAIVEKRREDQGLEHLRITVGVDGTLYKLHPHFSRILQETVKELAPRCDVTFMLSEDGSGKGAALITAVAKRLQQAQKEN

[6] = Intein inhibitors as potential Tuberculosis drugs, a cytotoxicity screen. [Related pubchem assays (depositor defined):AID2221, AID2223, AID434968, AID435010, AID449749, AID449750, AID489010]; type: functional
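Wherever CC50 is given: cells exposed to compound for 72 hours before luminescence readout.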

Sequence of Trypsin (P00761 whole entry): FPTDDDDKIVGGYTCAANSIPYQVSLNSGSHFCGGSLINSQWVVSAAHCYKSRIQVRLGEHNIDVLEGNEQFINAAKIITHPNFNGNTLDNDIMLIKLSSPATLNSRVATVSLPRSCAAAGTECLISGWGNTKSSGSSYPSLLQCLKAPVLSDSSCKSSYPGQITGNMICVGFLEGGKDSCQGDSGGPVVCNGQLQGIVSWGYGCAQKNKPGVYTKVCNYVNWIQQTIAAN
Sequence of Serine/threonine-protein phosphatase PP1-alpha catalytic subunit (P62136 whole entry): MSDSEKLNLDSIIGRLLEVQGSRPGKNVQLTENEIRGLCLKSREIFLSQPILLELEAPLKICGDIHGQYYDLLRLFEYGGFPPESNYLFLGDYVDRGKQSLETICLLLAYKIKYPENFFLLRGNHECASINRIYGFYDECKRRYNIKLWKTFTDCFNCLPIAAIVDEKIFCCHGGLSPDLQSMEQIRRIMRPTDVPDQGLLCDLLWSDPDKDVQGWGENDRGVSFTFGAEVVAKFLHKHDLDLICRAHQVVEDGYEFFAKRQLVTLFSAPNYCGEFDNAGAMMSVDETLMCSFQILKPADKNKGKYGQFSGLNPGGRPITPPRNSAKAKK
Sequence of Neurotensin receptor type 1 (P30989 whole entry): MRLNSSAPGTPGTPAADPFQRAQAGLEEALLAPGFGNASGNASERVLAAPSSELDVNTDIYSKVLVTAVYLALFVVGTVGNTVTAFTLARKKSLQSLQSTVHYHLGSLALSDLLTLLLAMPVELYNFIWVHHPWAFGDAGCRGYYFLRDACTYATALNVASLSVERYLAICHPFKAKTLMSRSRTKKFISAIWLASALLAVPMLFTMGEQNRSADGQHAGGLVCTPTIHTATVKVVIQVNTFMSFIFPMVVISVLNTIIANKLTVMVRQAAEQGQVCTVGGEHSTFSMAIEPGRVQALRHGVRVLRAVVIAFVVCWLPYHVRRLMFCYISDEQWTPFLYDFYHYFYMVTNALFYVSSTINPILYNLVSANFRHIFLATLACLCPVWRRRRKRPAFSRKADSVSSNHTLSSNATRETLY

Structure (SMILES): CCCCCCCCCCOC(=O)Cn1c(COc2cccc(OC)c2)[n+](C)c2ccccc21
- EC50 [1]: > 60 µM (not active)
- AC50 (Trypsin): 5.16 µM (active)
- AC50 (CAAX prenyl protease 2): 65.2 µM (active)
- EC50 [2]: 14.3 µM (active)

Structure (SMILES): COc1cc(OC)c(NC2=CC(=O)C(=O)c3ccccc32)cc1Cl
- EC50 [3]: 0.197 µM (active)

Structure (SMILES): CCc1ccc(S(=O)(=O)/N=C2\C=C(Nc3cccc(C(=O)O)c3)C(=O)c3ccccc32)cc1
- IC50 [4]: 22.7 µM (not active)
- AC50 [5]: 0.263 µM (active)
- IC50 (Hexokinase HKDC1): 4.78 µM (active)

Structure (SMILES): COc1cc2c(cc1OC)-c1c(OC)c(OC)cc3c1C(C2)N(C)CC3 (centres undefined)
- CC50 [6]: > 40 µM (active)
